# Tested on: diarrhea-predominant IBS subjects
# Assay: 3007 Study: open-label 52-week safety study, adverse events and withdrawals
# Settings: Overall
compound,measurement,value
"Cc1nccn1C[C@H]1CCc2c(c3cccc4c3n2CCC4)C1=O [cilansetron, (R)-(−)-4,5,6,8,9,10-hexahydro-10-[(2-methyl-1H-imidazol-1-yl)methyl]-11H-pyrido-[3,2,1-jk]-carbazol-11-one]",TEAE: Faeces Abnormal,9 (2%) n (%)
same,TEAE: Faeces Hard,6 (1%) n (%)
same,TEAE: Fall,4 (<1%) n (%)
same,TEAE: Fatigue,13 (2%) n (%)
same,TEAE: Fatigue Aggravated,1 (<1%) n (%)
same,TEAE: Febrile Disorders,3 (<1%) n (%)
same,TEAE: Fibroma NOS,1 (<1%) n (%)
same,TEAE: Fibromyalgia,1 (<1%) n (%)
same,TEAE: Flatulence,26 (5%) n (%)
same,"TEAE: Flatulence, Bloating and Distension",36 (7%) n (%)
same,TEAE: Fluid Intake Increased,1 (<1%) n (%)
same,TEAE: Fluid in Middle Ear,1 (<1%) n (%)
same,TEAE: Flushing,1 (<1%) n (%)
same,TEAE: Food Allergy,1 (<1%) n (%)
same,TEAE: Food Poisoning NOS,3 (<1%) n (%)
same,TEAE: Foot Fracture,2 (<1%) n (%)
same,TEAE: Fractures and Dislocations NEC,1 (<1%) n (%)
same,TEAE: Frequent Bowel Movements,1 (<1%) n (%)
same,TEAE: Fungal Infection NOS,3 (<1%) n (%)
same,TEAE: Fungal Infections NEC,8 (1%) n (%)
same,TEAE: Gamma-Glutamyltransferase Increased,8 (1%) n (%)
same,TEAE: Gastric Irritation,1 (<1%) n (%)
same,TEAE: Gastritis (Excl Infective),3 (<1%) n (%)
same,TEAE: Gastritis NOS,3 (<1%) n (%)
same,TEAE: Gastroenteritis NOS,9 (2%) n (%)
same,TEAE: Gastroenteritis Viral NOS,11 (2%) n (%)
same,TEAE: Gastrointestinal Atonic and Hypomotility Disorders NEC,133 (25%) n (%)
same,TEAE: Gastrointestinal Disorders,268 (50%) n (%)
same,TEAE: Gastrointestinal Disorders NEC,3 (<1%) n (%)
same,TEAE: Gastrointestinal Dyskinetic Disorders,4 (<1%) n (%)
same,TEAE: Gastrointestinal Histopathology Procedures,37 (7%) n (%)
same,TEAE: Gastrointestinal Infections - Pathogen Class Unspecified,9 (2%) n (%)
same,TEAE: Gastrointestinal Inflammatory Disorders NEC,2 (<1%) n (%)
same,TEAE: Gastrointestinal Motility Disorder NOS,3 (<1%) n (%)
same,TEAE: Gastrointestinal Mucosal Dystrophies and Secretion Disorders,1 (<1%) n (%)
same,TEAE: Gastrointestinal Signs and Symptoms NEC,4 (<1%) n (%)
same,TEAE: Gastrointestinal Spastic and Hypermotility Disorders,5 (<1%) n (%)
same,TEAE: Gastrointestinal and Abdominal Pains (Excl Oral and Throat),69 (13%) n (%)
same,TEAE: General Disorders and Administration Site Conditions,42 (8%) n (%)
same,TEAE: General Signs and Symptoms NEC,9 (2%) n (%)
same,TEAE: Gilbert's Syndrome,1 (<1%) n (%)
same,TEAE: Gingival Abscess,2 (<1%) n (%)
same,TEAE: Gingival Atrophy,1 (<1%) n (%)
same,TEAE: Gingival Disorders NEC,3 (<1%) n (%)
same,TEAE: Gingival Pain,1 (<1%) n (%)
same,TEAE: Gingival Pains,1 (<1%) n (%)
same,TEAE: Gingivitis,2 (<1%) n (%)
same,TEAE: Gingivitis Infection NOS,1 (<1%) n (%)
same,TEAE: Glucose Tolerance Impaired,1 (<1%) n (%)
same,TEAE: Glucose Urine Present,1 (<1%) n (%)
same,TEAE: Glycosuria,1 (<1%) n (%)
same,TEAE: Goitre,1 (<1%) n (%)
same,TEAE: Gout,2 (<1%) n (%)
same,TEAE: Groin Pain,1 (<1%) n (%)
same,TEAE: Haematocrit Decreased,1 (<1%) n (%)
same,TEAE: Haematoma NOS,1 (<1%) n (%)
same,TEAE: Haematuria,4 (<1%) n (%)
same,TEAE: Haemoglobin Decreased,1 (<1%) n (%)
same,TEAE: Haemorrhoidal Haemorrhage,4 (<1%) n (%)
same,TEAE: Haemorrhoids,11 (2%) n (%)
same,TEAE: Haemorrhoids Aggravated,1 (<1%) n (%)
same,TEAE: Haemorrhoids and Gastrointestinal Varices (Excl Oesophageal),15 (3%) n (%)
same,TEAE: Halitosis,1 (<1%) n (%)
same,TEAE: Hallucination NOS,1 (<1%) n (%)
same,"TEAE: Hallucination, Auditory",1 (<1%) n (%)
same,TEAE: Hand Fracture,1 (<1%) n (%)
same,TEAE: Headache NOS,31 (6%) n (%)
same,TEAE: Headache NOS Aggravated,5 (<1%) n (%)
same,TEAE: Headaches NEC,39 (7%) n (%)
same,TEAE: Hearing Losses,1 (<1%) n (%)
same,TEAE: Heart Rate Increased,2 (<1%) n (%)
same,TEAE: Heart Rate and Pulse Investigations,2 (<1%) n (%)
same,TEAE: Heat Exhaustion,1 (<1%) n (%)
same,TEAE: Heat Injuries (Excl Thermal Burns),1 (<1%) n (%)
same,TEAE: Helicobacter Pylori Antibody Positive,1 (<1%) n (%)
same,TEAE: Hepatitis NOS,1 (<1%) n (%)
same,TEAE: Hepatobiliary Disorders,5 (<1%) n (%)
same,TEAE: Hepatobiliary Signs and Symptoms,1 (<1%) n (%)
same,TEAE: Hepatocellular Damage and Hepatitis NEC,1 (<1%) n (%)
same,TEAE: Hepatosplenomegaly NOS,1 (<1%) n (%)
same,TEAE: Hernia NOS,1 (<1%) n (%)
same,TEAE: Hernia Repair NOS,1 (<1%) n (%)
same,TEAE: Hernia Repairs,1 (<1%) n (%)
same,TEAE: Hernias NEC,1 (<1%) n (%)
same,TEAE: Herpes Simplex,3 (<1%) n (%)
same,TEAE: Herpes Simplex Aggravated,1 (<1%) n (%)
same,TEAE: Herpes Viral Infections,5 (<1%) n (%)
same,TEAE: Herpes Zoster,1 (<1%) n (%)
same,TEAE: Hiatus Hernia,2 (<1%) n (%)
same,TEAE: Hot Flushes NOS,1 (<1%) n (%)
same,TEAE: Hypercholesterolaemia,6 (1%) n (%)
same,TEAE: Hyperglycaemia NOS,3 (<1%) n (%)
same,TEAE: Hyperglycaemic Conditions NEC,4 (<1%) n (%)
same,TEAE: Hyperkeratoses,1 (<1%) n (%)
same,TEAE: Hyperkeratosis,1 (<1%) n (%)
same,TEAE: Hyperlipidaemia NOS,1 (<1%) n (%)
same,TEAE: Hyperlipidaemias NEC,1 (<1%) n (%)
same,TEAE: Hyperreflexia,1 (<1%) n (%)
same,TEAE: Hypersensitivity NOS,2 (<1%) n (%)
same,TEAE: Hypertension Aggravated,2 (<1%) n (%)
same,TEAE: Hypertension NOS,13 (2%) n (%)
same,TEAE: Hypoaesthesia,2 (<1%) n (%)
same,TEAE: Hypotension NOS,1 (<1%) n (%)
same,TEAE: Immune System Disorders,9 (2%) n (%)
same,TEAE: Inborn Errors of Bilirubin Metabolism,1 (<1%) n (%)
same,TEAE: Infected Varicose Vein,1 (<1%) n (%)
same,TEAE: Infections NEC,4 (<1%) n (%)
same,TEAE: Infections and Infestations,173 (32%) n (%)
same,TEAE: Influenza,18 (3%) n (%)
same,TEAE: Influenza Like Illness,4 (1%) n (%)
same,TEAE: Influenza Viral Infections,18 (3%) n (%)
same,TEAE: Ingrowing Nail,1 (<1%) n (%)
same,TEAE: Inguinal Hernia NOS,1 (<1%) n (%)
same,TEAE: Inguinal Hernias,1 (<1%) n (%)
same,"TEAE: Injury, Poisoning and Procedural Complications",47 (9%) n (%)
same,TEAE: Inner Ear Disorders NEC,1 (<1%) n (%)
same,TEAE: Inner Ear Infections and Inflammations,3 (<1%) n (%)
same,TEAE: Inner Ear Signs and Symptoms,3 (<1%) n (%)
same,TEAE: Insomnia,5 (<1%) n (%)
same,TEAE: Insomnia Exacerbated,1 (<1%) n (%)
same,TEAE: Intermenstrual Bleeding*,1 (<1%) n (%)
same,TEAE: Intervertebral Disc Degeneration NOS,2 (<1%) n (%)
same,TEAE: Intervertebral Disc Disorder NOS,1 (<1%) n (%)
same,TEAE: Intervertebral Disc Disorders NEC,5 (<1%) n (%)
same,TEAE: Intervertebral Disc Herniation,4 (<1%) n (%)
same,TEAE: Intestinal Haemorrhages,8 (1%) n (%)
same,TEAE: Intraocular Pressure Increased,2 (<1%) n (%)
same,TEAE: Investigations,126 (24%) n (%)
same,TEAE: Irritability,1 (<1%) n (%)
same,TEAE: Irritable Bowel Syndrome,1 (<1%) n (%)
same,TEAE: Irritable Bowel Syndrome Aggravated,3 (<1%) n (%)
same,TEAE: Ischaemic Coronary Artery Disorders,4 (<1%) n (%)
same,TEAE: Joint Related Disorders NEC,2 (<1%) n (%)
same,TEAE: Joint Related Signs and Symptoms,14 (3%) n (%)
same,TEAE: Joint Sprain,4 (<1%) n (%)
same,TEAE: Joint Swelling,1 (<1%) n (%)
same,TEAE: Kidney Infection NOS,1 (<1%) n (%)
same,TEAE: Labyrinthitis NOS,3 (<1%) n (%)
same,TEAE: Laceration,6 (1%) n (%)
same,TEAE: Lacrimal Disorders,2 (<1%) n (%)
same,TEAE: Lactose Intolerance,1 (<1%) n (%)
same,TEAE: Laryngeal and Adjacent Sites Disorders NEC (Excl Infections and Neoplasms),3 (<1%) n (%)
same,TEAE: Laryngitis NOS,3 (<1%) n (%)
same,TEAE: Leiomyoma NOS,1 (<1%) n (%)
same,TEAE: Lethargy,1 (<1%) n (%)
same,TEAE: Leukopenia NOS,2 (<1%) n (%)
same,TEAE: Leukopenias NEC,2 (<1%) n (%)
same,TEAE: Libido Decreased,1 (<1%) n (%)
same,"TEAE: Lid, Lash and Lacrimal Structural Disorders (Excl Congenital)",1 (<1%) n (%)
same,TEAE: Ligament Sprain,2 (<1%) n (%)
same,TEAE: Limb Discomfort NOS,1 (<1%) n (%)
same,TEAE: Limb Injuries NEC (Incl Traumatic Amputation),4 (<1%) n (%)
same,TEAE: Limb Injury NOS,2 (<1%) n (%)
same,TEAE: Lip and Palate Disorders NEC,1 (<1%) n (%)
same,TEAE: Lipid Metabolism Disorder NOS,1 (<1%) n (%)
same,TEAE: Lipid Metabolism and Deposit Disorders NEC,1 (<1%) n (%)
same,TEAE: Lipoma NOS,2 (<1%) n (%)
same,TEAE: Liver Function Analyses,23 (4%) n (%)
same,TEAE: Liver Function Tests NOS Abnormal,2 (<1%) n (%)
same,TEAE: Localised Infection,2 (<1%) n (%)
same,TEAE: Localised Osteoarthritis,1 (<1%) n (%)
same,TEAE: Loss of Consciousness,1 (<1%) n (%)
same,TEAE: Lower Limb Fracture NOS,1 (<1%) n (%)
same,TEAE: Lower Limb Fractures and Dislocations,3 (<1%) n (%)
same,TEAE: Lower Respiratory Tract Signs and Symptoms,2 (<1%) n (%)
same,TEAE: Lower Respiratory Tract and Lung Infections,28 (5%) n (%)
same,TEAE: Lymphadenopathy,2 (<1%) n (%)
same,TEAE: Lymphangitis and Lymphatic Disorders NEC,2 (<1%) n (%)
same,TEAE: Lymphocyte Count Increased,2 (<1%) n (%)
